From PubChem BioAssay (NCI) come the findings set out here.

Some test systems named below: NCI/ADR-RES ovarian; SW-620 colon; MDA-MB-435; UO-31 renal; MCF7 breast; DU-145 prostate; ACHN renal; HOP-92 NSCLC; CAKI-1 renal; SN12C renal.
Experiment in all cases: NCI tumour cell line growth inhibition, 48 h

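Values below derive from 48-hour exposures of cells grown in 96-well plates, with endpoints linearly interpolated between the two concentrations bracketing the appropriate inhibition level. Abbreviation: GI50, concentration required for 50% inhibition of growth. TGI: concentration producing complete growth inhibition.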

Consider `CC(C)(C)OC(=O)CN1CCc2c(sc3ncnc(N/N=C/c4cccc5ccccc45)c23)C1`, for which the GI50 was 3.55 µM in the assay with NCI/ADR-RES ovarian; 1800 nM in the assay on SW-620 colon; 2100 nM in the assay on MDA-MB-435; 1190 nM in the assay with UO-31 renal; 923 nM in the assay with MCF7 breast; 4.73 µM in the assay on DU-145 prostate. In addition, the GI50 was 1590 nM in the assay on ACHN renal, 1740 nM with HOP-92 NSCLC, 3300 nM in the assay with CAKI-1 renal and 3.65 µM with SN12C renal. For the same compound, the TGI was 14.5 µM with NCI/ADR-RES ovarian; 7.96 µM in the assay with SW-620 colon; 9.83 µM in the assay on MDA-MB-435; 5.87 µM with UO-31 renal; 2.85 µM with MCF7 breast; 31.9 µM in the assay on DU-145 prostate. The TGI in the assay with ACHN renal turned out to be 7.5 µM; in the assay with HOP-92 NSCLC it was 16.7 µM; in the assay with CAKI-1 renal, 18.7 µM; in the assay on SN12C renal, 9.04 µM.
For `O=c1c2ccccc2nc(-c2ccccc2)n1O`, the TGI with NCI/ADR-RES ovarian, with SW-620 colon, with MDA-MB-435, in the assay on UO-31 renal, with MCF7 breast and in the assay on DU-145 prostate was over 100 µM throughout. In addition, the TGI in the assay on ACHN renal, in the assay with HOP-92 NSCLC, in the assay with CAKI-1 renal and in the assay on SN12C renal was over 100 µM in each case.
For the compound `O=S(=O)(O)/C(=C\c1ccccc1)c1ccccc1` (tested in a mixture with another compound), the TGI in the assay with NCI/ADR-RES ovarian, with SW-620 colon, in the assay with MDA-MB-435, in the assay on UO-31 renal, with MCF7 breast and in the assay with DU-145 prostate was over 100 µM throughout. Besides, the TGI with ACHN renal, in the assay with HOP-92 NSCLC, in the assay on CAKI-1 renal and with SN12C renal was over 100 µM throughout.
`C=CCC(N[C@H](CO)c1ccccc1)c1cn(S(=O)(=O)c2ccc(C)cc2)c2ccccc12` (stereo not given in full): the GI50 is 18.9 µM in the assay on NCI/ADR-RES ovarian; 31800 nM with SW-620 colon; 19000 nM with MDA-MB-435; 94800 nM in the assay with UO-31 renal; over 100000 nM with MCF7 breast; 26.7 µM in the assay on DU-145 prostate. The GI50 in the assay on ACHN renal is 18000 nM; in the assay with HOP-92 NSCLC it was 24900 nM; in the assay with CAKI-1 renal, 11500 nM; with SN12C renal it was 16.9 µM. The TGI in the assay on NCI/ADR-RES ovarian was 46.2 µM; in the assay with SW-620 colon, 85.9 µM; in the assay with MDA-MB-435 it was 46.8 µM; in the assay on UO-31 renal, over 100 µM; in the assay on MCF7 breast, over 100 µM; in the assay with DU-145 prostate, 67.2 µM. Besides, the TGI in the assay with ACHN renal is 45.2 µM; in the assay on HOP-92 NSCLC, over 100 µM; in the assay with CAKI-1 renal, 37.3 µM; with SN12C renal, 32.2 µM.
Take `COc1cc2cc(Oc3ccc(NC(=O)Nc4ccc(Cl)c(C(F)(F)F)c4)cc3)c(C)nc2cc1OC`: the GI50 in the assay with NCI/ADR-RES ovarian was 1.06 µM; in the assay on SW-620 colon it was 1250 nM; in the assay on MDA-MB-435, 1030 nM; in the assay on UO-31 renal it was 924 nM; with MCF7 breast it was 1080 nM; in the assay with DU-145 prostate, 1.24 µM. Besides, the GI50 in the assay on ACHN renal was 1070 nM; with HOP-92 NSCLC, 682 nM; in the assay with CAKI-1 renal, 782 nM; in the assay with SN12C renal, 1.31 µM. Besides, the TGI was determined as 4.91 µM in the assay with NCI/ADR-RES ovarian; 4.57 µM in the assay on SW-620 colon; 4.71 µM in the assay with MDA-MB-435; 2.38 µM in the assay with UO-31 renal; 3.88 µM in the assay on MCF7 breast; 5.11 µM in the assay with DU-145 prostate. The TGI in the assay with ACHN renal was 4 µM; in the assay with HOP-92 NSCLC, 2.05 µM; with CAKI-1 renal it was 2.54 µM; in the assay with SN12C renal, 6.12 µM.
For the compound `Cc1ccc2c(c1)O/C(=C\c1ccc([N+](=O)[O-])o1)C2=O`, the GI50 with NCI/ADR-RES ovarian was 2.85 µM; in the assay with SW-620 colon it was 296 nM; in the assay with MDA-MB-435, 1870 nM; with UO-31 renal, 1180 nM; in the assay on MCF7 breast it was 432 nM; in the assay on DU-145 prostate, 2.25 µM. Also, the GI50 in the assay with ACHN renal is 1190 nM; in the assay on HOP-92 NSCLC it was 1140 nM; with CAKI-1 renal, 1410 nM; in the assay with SN12C renal, 1.92 µM. Besides, the TGI was determined as 23.1 µM with NCI/ADR-RES ovarian; 1.27 µM with SW-620 colon; 4.42 µM in the assay on MDA-MB-435; 3.46 µM in the assay on UO-31 renal; 2.01 µM in the assay on MCF7 breast; 6.4 µM in the assay on DU-145 prostate. Also, the TGI stood at 2.53 µM in the assay with ACHN renal, 2.76 µM in the assay with HOP-92 NSCLC, 2.94 µM in the assay on CAKI-1 renal and 4.96 µM in the assay on SN12C renal.
Turning to `O=C(O)c1cc(Cc2ccc(O)c(C(=O)O)c2)ccc1O` (tested in a mixture with another compound), the GI50 with NCI/ADR-RES ovarian was 6.48 µM; with SW-620 colon, 3550 nM; in the assay on MDA-MB-435, 4200 nM; in the assay with UO-31 renal, 3990 nM; in the assay on MCF7 breast it was 2530 nM; in the assay on DU-145 prostate, 12 µM. Further, the GI50 was 11000 nM with ACHN renal, 1210 nM with HOP-92 NSCLC, 1360 nM with CAKI-1 renal and 6.84 µM with SN12C renal. Also, the TGI was 21 µM in the assay on NCI/ADR-RES ovarian; 23.5 µM in the assay on SW-620 colon; 16 µM in the assay with MDA-MB-435; 19.9 µM in the assay on UO-31 renal; 12.5 µM in the assay with MCF7 breast; 27.8 µM in the assay on DU-145 prostate. Further, the TGI in the assay on ACHN renal came to 24.8 µM; with HOP-92 NSCLC it was 6.3 µM; with CAKI-1 renal, 3.69 µM; with SN12C renal, 20.6 µM.
`C#Cc1cccc(Oc2ccc(NC(=O)CCl)cc2)c1`: the GI50 with NCI/ADR-RES ovarian is over 82.5 µM; in the assay with SW-620 colon it was 24800 nM; in the assay on MDA-MB-435, over 82500 nM; in the assay on UO-31 renal it was over 82500 nM; in the assay with MCF7 breast, 64400 nM; with DU-145 prostate, over 82.5 µM. Besides, the GI50 in the assay with ACHN renal was over 82500 nM; with HOP-92 NSCLC, over 82500 nM; with CAKI-1 renal it was over 82500 nM; in the assay on SN12C renal, over 82.5 µM. The TGI in the assay with NCI/ADR-RES ovarian, with SW-620 colon, in the assay on MDA-MB-435, with UO-31 renal, in the assay with MCF7 breast and with DU-145 prostate was over 82.5 µM in each case. Further, the TGI with ACHN renal, in the assay on HOP-92 NSCLC, with CAKI-1 renal and in the assay on SN12C renal was over 82.5 µM in each case.
